Data set [1] in a line: Acid and organic solution stability, HPLC-UV 250 nm. The note with it: for Appearance of the stability solution / Degradation / conversion to ezogabine in solution (summary) / Ezogabine Area: 5 mg/mL; for Degradation / conversion to ezogabine in solution (summary): up to 3 weeks. The method, then:
An HPLC-UV Vis method was developed using 0.1% Formic acid in water as mobile phase A and 0.1% Formic acid in acetonitrile as mobile Phase B. A gradient method was developed ramping from 10% A to 90% B over 8 minutes and then returning to 10% A at 8.5 minutes on a 4.6×50 mm Zorbax C-18 column. Injections of 10 uL of stability solutions were injected for analyte detection.
[…] Aliquots were collected at serial time points and then diluted to a nominal concentration of 100 ug/mL for injection to the HPLC and 250 nm monitored by the diode array detector. Data at approximately 10 days is presented.
Aliquots were collected at serial time points and then diluted to a nominal concentration of 100 ug/mL for injection to the HPLC and 250 nm monitored by the diode array detector.
(§1) It was also evaluated at 2 N HCl at 37° C. Aliquots were collected at serial time points and then diluted to a nominal concentration of 100 ug/mL for injection to the HPLC and 250 nm monitored by the diode array detector.
as §1, §1, §1

The conditions of data set [2]: patients receiving ezogabine (POTIGA); cited from earlier work.
Data set [3] can be described thus: Pharmacokinetics of ezogabine prodrugs in rat (IV, IM, PO). How it is done: (§2) Blood was diluted by 10% with these stabilizers.
(§3) Extraction of the molecules was conducted by taking a 50 uL aliquot of plasma and adding 200 uL of acetonitrile containing 200 ng/mL tolbutamide as the internal standard. Samples were precipitated in a 96 well plate, centrifuges and an aliquot transferred to a new plate, dried down under heat and nitrogen and then reconstituted in the initial mobile phase conditions of the LC-MS/MS method. […] A standard curve was prepared from 5000 ng/mL to 1 ng/mL for each analyte. Concentration data from the bioanalytical run was analyzed by Phoenix Winnonlin version 8 for noncompartmental PK analysis, plotting of concentration time curves and tabulation of PK parameters.
150 uL of blood were collected at predesignated time points. At completion of the study animals were asphyxiated by carbon dioxide gas and exsanguinated for euthanasia.

Data set [4] can be described thus: Pharmacokinetics of ezogabine prodrugs in mouse (SC, PO). The note with it: male mice, PO 20 mg/kg Cmpd 1 dosed. The method, then:
as §2
as §3, with “noncompartmental sparse sampling” for “noncompartmental”
Animals were asphyxiated by carbon dioxide gas, blood was collected by cardiac stick and they were euthanized by cervical dislocation.

A short description of data set [5]: In vitro rat plasma stability at 37° C. The following applies: 1000 ng/mL. It is filed as in vitro ADME. The method, then: (§4) Plasma was collected by the biomaterial vendor and kept frozen at −20° C.
(§5) The samples were analyzed by HPLC separation and mass spectrometry detection for prodrug amount, relative to a baseline time 0 control sample. Triplicate samples were generated at each time point and the peak area response was averaged and converted to a percent of baseline control.

The test system of data set [6] is mechanical hypersensitivity in the CCI model. The data set can be described thus: CCI model of neuropathic pain (pin prick, von Frey hairs). It is filed as in vivo, Sprague Dawley rat. The note with it: 1 h after pretreatment. How it is done: Compound 3 was tested for reversal of mechanical hypersensitivity to the pin prick test for hindlimb paw withdraw and the von Frey hairs for gram force mechanical allodynia in the CCI model of neuropathic pain. Male Sprague Dawley rats (n=8/group) were tested for baseline sensitivity on Day 1 (ipsilateral and contralateral paws) and administered XYG-203 orally; 40 mg/kg on Day 1, 20 mg/kg Day 3, 10 mg/kg Day 5, 5 mg/kg Day 7, 1 mg/kg Day 10 and baseline on Day 12. Mechanical hypersensitivity was tested 1 h after pretreatment. Data (mean±SD) were analyzed with a repeated measures ANOVA with Dunnet's adjustment for multiple comparisons.

Data set [7] in a line: In vitro mouse plasma stability at 37° C. The following applies: 1000 ng/mL. It counts as in vitro ADME. How it is done: as §4, §5
Data set [8] in a line: Rat PK at equimolar dose to Ezogabine (20 mg/kg) in 0.5% methylcellulose. The note with it: for AUClast/D / Cmax/D: male jugular vein cannulated rats, dose equimolar to Ezogabine 20 mg/kg, 0.5% methylcellulose in water, analyte the dosed prodrug; for AUClast/D: 24 hours. The method, then:
(§6) Blood samples were collected at the same time points over 24 hours to generate a concentration time profile. Two male rats were dosed per group. Plasma samples were analyzed by LC/MS/MS and the resulting concentration time profiles and PK parameters are provided.
as §6, §6

Data set [9] can be described thus: Stability in solvents on the benchtop exposed to light, HPLC-UV 230 nm. It is filed as physicochemical. The note with it: benchtop exposed to light. The method, then:
Compounds in solvent were left on the benchtop exposed to light for up to 7 days since it is known that Compound 1 will degrade with light within 3-7 days.
Stability was assessed by taking an aliquot from the solubility vials at each test day. A single replicate was injected for each test condition.
Samples were injected onto an HPLC system with an aqueous mobile phase and acetonitrile organic phase and compounds were separated on a C8 50×2 mm column. Wavelength 230 nm was monitored for absorption and integrated for peak area while the mass spectrometer was used to confirm mass. Samples were tested on Day 1 and on subsequent days through Day 7.

A short description of data set [10]: Solvent solubility assessment by visual inspection. It is filed as physicochemical. The note with it: 0.1N Na2HPO4. How it is done: Compounds were weighed and placed into a 4 dram vials and solvents were added to the target concentration. Compounds were vortex and visually inspected for particulates and considered soluble if clear upon visual inspection with and without magnification. Solubility was reported as either greater than (>) or less than (<) from the prepared concentration. […] It was evaluated at 10 mg/mL in 0.1 N NaCl and was freely soluble. It was evaluate at 1 mg/mL in 0.1 N NaOH and 0.1 N Na2HPO4 and was freely soluble. In ethanol and methanol it was freely soluble at a concentration of 75 mg/mL. […] It was freely soluble at 75 mg/mL in methanol and ethanol. It was soluble at 1 mg/mL in 1N HCl.

Where only a bound is given, the exact number is not on record here.

Turning to `CCOC(=O)Nc1ccc(NCc2ccc(F)cc2)cc1N` [Compound 1, ezogabine], the “Appearance of the stability solution” value in [1] (acid solutions, room temperature) was “turning light purple (indicating degradation) by Day 2”. Besides, in data set [1] (low pH), the Solubility result is given as “soluble”. Also, the “Behaviour at low pH” value in data set [1] (low pH (1 N HCl) and simulated gastric fluid) was “degrades and forms a chromophore dimer”. Also, the Solubility result in data set [1] (neutral pH) is given as “not soluble”. Also, the “Appearance of the stability solution” value in data set [1] (organic solvent solutions, room temperature) is on record as “did not begin turning purple until Day 7”. In [2], the “Adverse reaction: abnormal coordination” value is listed as 7%, the “Adverse reaction: aphasia” value was 4%, the “Adverse reaction: asthenia” value is on record as 5% and the “Adverse reaction: balance disorder” value is recorded as 4%. Moreover, in data set [2], the “Adverse reaction: blurred vision” value is on record as 5%, the “Adverse reaction: confusional state” value was 9%, the “Adverse reaction: diplopia” value is recorded as 7% and the “Adverse reaction: disturbance in attention” value is 6%. In [2], the “Adverse reaction: dizziness” value was 23%, the “Adverse reaction: dysarthria” value is 4%, the “Adverse reaction: fatigue” value was 15% and the “Adverse reaction: gait disturbance” value is given as 4%. Besides, in data set [2], the “Adverse reaction: memory impairment” value is 6%, the “Adverse reaction: somnolence” value is recorded as 22%, the “Adverse reaction: tremor” value is on record as 8% and the “Adverse reaction: vertigo” value was 8%. In addition, in data set [3] (male Sprague Dawley rats, PO 20 mg/kg Cmpd 1 dosed, analyte Cmpd 1, AUClast […] h), the AUClast/D amounted to 280 ng·h/mL/mg/kg. The Cmax/D in data set [4] (analyte Cmpd 1) worked out at 148 ng/mL/mg/kg. Moreover, in data set [4] (analyte Cmpd 1, AUClast 6 h), the AUClast/D came out at 190 ng·h/mL/mg/kg.

Consider `CCOC(=O)Nc1ccc(NCc2ccc(F)cc2)cc1NC(=O)OC(C)OC(=O)C(C)C` (stereo not drawn) [Compound 3], for which the “Appearance of the stability solution” value in [1] was “clear and colorless through Day 18”; in [1] (9 days) it was “turned a golden yellow by Day 9”. The “Degradation / conversion to ezogabine in solution (summary)” value in data set [1] is “converts to ezogabine under acidic conditions but does not in organic solvent”. The “Ezogabine Area” value in data set [1] (0.1N HCl, room temp., normal light, 433 h) is on record as 400 mAU; in [1] (1N HCl, room temp., normal light, 97 h) it was 2881 mAU; in [1] (Acetonitrile, room temp., normal light, 435 h), 51 mAU; in [1] (Ethanol, room temp., normal light, 390 h) it was 43 mAU; in data set [1] (Methanol, room temp., normal light, 435 h) it was 41 mAU. Also, the “Exposure of the prodrug itself in systemic circulation” value in [3] (rat, in vivo, po) is “very little exposure”. The “Time to full degradation in vitro” value in data set [5] and in [7] was at most 1 h in each case. For the same compound, the “Mechanical hypersensitivity versus baseline” value in [6] (oral 5 mg/kg) is reported as 95% confidence intervals did not cross the baseline mean. Besides, the “Gram force to paw lift (von Frey hairs)” value in [6] (oral 40 mg/kg) is “increased the gram force to paw lift significantly”. The “Reduction of the latency of neuropathic ipsilateral paw withdrawal” value in [6] (oral 40 mg/kg, pin prick, p=0.0003) is 9.2 s. Also, the AUClast/D in data set [8] was determined as 0.0136 ng·h/mL/mg/kg. In [8], the Cmax/D was determined as 0.0273 ng/mL/mg/kg. The “Total exposure of ezogabine on a given molar dose relative to ezogabine” value in data set [8] (male, rat, in vivo) was above 2 fold. Further, the Stability in solvent result was “stable over 4 days” in [9] (0.1N HCl); “not stable” in data set [9] (1N HCl over 7 days); “soluble and stable through 3 days” in [9] (ethanol and methanol, degradation on Day 4). Also, the Solubility in data set [10] is below 1000 µg/mL.

As for `CCOC(=O)Nc1ccc(NCc2ccc(F)cc2)cc1NC(=O)[C@H](N)CO` [Compound 6], the “Degradation / conversion to ezogabine in solution (summary)” value in data set [1] is recorded as “very little degradation to ezogabine”. For the same compound, the “Ezogabine Area” value in data set [1] (1N HCl, room temp., normal light, 437 h) is reported as 58 mAU; in data set [1] (2N HCl 37 C., 437 h) it was 461 mAU; in data set [1] (2N HCl, room temp., normal light, 437 h), 177 mAU; in data set [1] (Methanol, room temp., normal light, 437 h), 184 mAU. Also, the “Appearance of the stability solution” value in [1] (18 days) is “remained clear and colorless through Day 18”. In addition, the AUClast/D in [8] was determined as 199 ng·h/mL/mg/kg. The Cmax/D in data set [8] stood at 233 ng/mL/mg/kg. Moreover, in data set [8] (rats, equimolar dose to Ezogabine 20 mg/kg), the “Exposure of ezogabine (dose normalized AUC) compared with ezogabine itself” value is reported as “similar”.

By Solubility is commonly meant the dissolved amount per volume that the medium holds. Low values mean a poorly soluble substance, high ones a readily soluble substance.

Values taken from patent US20240228434A1, “PRODRUGS OF KV7 CHANNEL OPENERS” (Xyzagen, Inc., priority 2021, published 2024).
